Legend:
[1] = tested on: β-receptor (heart rate response to isoproterenol); test: Duration and potency of beta-blocking action in vivo (3-hour infusion, isoproterenol challenge, pentobarbital-anesthetized dogs); parameters: species or system dog
Method: The duration of β-blockage was determined in vivo using pentobarbital-anesthetized dogs instrumented for measurement of heart rate using a Beckman cardiotachometer triggered electronically by a phasic aortic blood pressure signal. Both vagus nerves were severed in the cervical region and the animals were mechanically ventilated. The experimental design used employed a 3-hour infusion of test compound. Bolus doses of isoproterenol (0.5 μg/kg) were used to assess the degree of β-blockage and recovery from β-blockage after […] of the infusion. The doses were spaced at 10-minute intervals and were given before, during and following the infusion of test compounds. The infusion rate was adjusted so that at the end of the 3-hour infusion period the degree of isoproterenol inhibition averaged about 50% of control. Following termination of blocker infusion, percent recovery from β-blockade was computed and the time associated with 80% recovery estimated.

[2] = target: T1, β-receptor (guinea pig right atria) (Cavia porcellus, UniProt H0W3H1); test: Beta-blocking activity in vitro, guinea pig right atria (antagonism of isoproterenol-induced rate response); assay type: cell-based; conditions: 60-minute incubation, 37° C, Furchgott method; for Kb: read-out: pA2 Atria (converted)
T1 construct: from tissue; host or cells: guinea pig right atria
Method: Several of the compounds of the present invention were tested for β-blocking activity in vitro using guinea pig right atria and guinea pig tracheal strips mounted in a tissue bath containing oxygenated (95% 02 -5% CO2) Krebs physiological salt solution at 37° C. Each tissue was suspended between a fixed glass rod and a Statham Universal Transducer connected to a Beckman recorder. Atria were allowed to beat spontaneously under a loading tension of approximately 0.5 gm. Intrinsic depressant or stimulant activity was determined for each compound by progressively increasing concentrations in the tissue baths at 60-minute intervals. Tissues were not washed between increments. The maximum concentration showing little or no cardiodepressant activity was chosen for blockade experiments. Changes in rate in response to isoproterenol, a standard β-receptor agonist, were measured in the absence and presence of test compounds. Spiral strips of guinea pig trachea were suspended under 5 gm resting tension and incubated with phentolamine, tropolone and cocaine. Active tension was generated by addition of carbachol (3.0×10^-7 M) and decreases in tension in response to isoproterenol were quantitated. Cumulative concentration-response curves were produced with isoproterenol both before and after 60-minute incubation of test compounds with atria and trachea. Compounds with β-blocking activity shifted concentration-response curves to the right. The blocking potency of test compounds was estimated by computing pA2 values (--log K8) by the method of Furchgott, the Pharmacological Differentiation of Adrenergic Receptors, Ann. N.Y. Acad. Sci., 139:553-570 (1967). […] The degree of cardioselectivity was estimated from the ratio, Kβ trachea/Kβ atria (10^(pA 2^atria-pA 2^trachea)). A ratio greater than one indicates cardioselectivity. Test drugs were dissolved in distilled water and added to the bath (30 mL) in a volume of 10 or 100 μL. All of the test compounds are active β-blockers.

T1 sequence (H0W3H1 1-470): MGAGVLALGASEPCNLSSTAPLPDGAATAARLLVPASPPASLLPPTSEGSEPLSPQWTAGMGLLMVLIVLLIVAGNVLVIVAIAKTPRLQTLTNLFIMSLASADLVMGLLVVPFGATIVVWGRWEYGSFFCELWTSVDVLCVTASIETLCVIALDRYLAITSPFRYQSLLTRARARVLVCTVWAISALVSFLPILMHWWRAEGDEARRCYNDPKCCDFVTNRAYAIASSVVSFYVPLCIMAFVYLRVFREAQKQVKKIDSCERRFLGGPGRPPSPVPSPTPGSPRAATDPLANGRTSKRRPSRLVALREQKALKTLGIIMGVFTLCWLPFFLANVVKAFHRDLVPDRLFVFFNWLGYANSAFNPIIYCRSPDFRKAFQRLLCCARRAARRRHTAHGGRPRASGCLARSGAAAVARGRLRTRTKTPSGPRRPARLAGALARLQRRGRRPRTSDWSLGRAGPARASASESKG

Row | SMILES | pA2 Atria [2] | Kb [2] | also measured
1 | CC(C)(C)NCC(O)COCc1ccc(O)c(O)c1 (stereo not drawn) [Compound 4a] | 6.5 |  | In Vivo Potency ([1]; anesthetized dogs, infusion rate adjusted to about 50% isoproterenol inhibition at end of 3-hour infusion): 112 mcg/k/m; In Vivo % I ([1]; isoproterenol inhibition (isoproterenol 0.5 μg/kg bolus), dogs, 3-hour infusion at the listed potency rate): 45%; DOA (Time for rec. in min.) 50% ([1]; time to 50% recovery from β-blockade after termination of 3-hour infusion, dogs): 5 min; DOA (Time for rec. in min.) 80% ([1]; time to 80% recovery from β-blockade after termination of 3-hour infusion, dogs, estimated): 16 min
2 | CC(C)(C)NCC(O)COCc1cc(O)c(O)cc1F (stereo not drawn) [Compound 4b] | 7.0 |  | 
3 | Cc1cc(O)c(O)cc1COCC(O)CNC(C)(C)C (stereo not drawn) [Compound 4c] | 6.0 |  | 
4 | CC(C)(C)NCC(O)COCc1cc(O)cc(O)c1 (stereo not drawn) [Compound 5a] |  | 316 nM | 
5 | CC(C)(C)NCC(O)COCc1cc(O)c(O)c(O)c1 (stereo not drawn) [Compound 5b] |  | 1000 nM | 
6 | CC(C)C(=O)NCC(C)(C)NCC(O)COCc1cc(O)cc(O)c1 (stereo not drawn) [Compound 5c] |  | 79.4 nM | 
7 | CC(C)(CNC(=O)c1ccccc1)NCC(O)COCc1cc(O)cc(O)c1 (stereo not drawn) [Compound 5d] |  | 79.4 nM | 
8 | CC(C)(CNC(=O)C1CCCCC1)NCC(O)COCc1cc(O)cc(O)c1 (stereo not drawn) [Compound 5e] |  | 200 nM | 

From patent US5064827A, “Polyhydroxybenzyloxpropanolamines” (Du Pont Merck Pharmaceutical Company, priority 1990, dated 1991)
